From US8796249B2, “TGR5 modulators and methods of use thereof” (Intercept Pharmaceuticals, Inc., priority 2008, dated 2014)
Counter-ions that a name gives are not always drawn. Like-named read-outs stand apart in the source and are kept apart here.

Key:
PPARδ = target: T1, PPARδ (Homo sapiens, UniProt Q03181); test: NR selectivity assay PPARδ; conditions: unnamed ref standard 0.004 μM
T1 sequence (Q03181 1-441): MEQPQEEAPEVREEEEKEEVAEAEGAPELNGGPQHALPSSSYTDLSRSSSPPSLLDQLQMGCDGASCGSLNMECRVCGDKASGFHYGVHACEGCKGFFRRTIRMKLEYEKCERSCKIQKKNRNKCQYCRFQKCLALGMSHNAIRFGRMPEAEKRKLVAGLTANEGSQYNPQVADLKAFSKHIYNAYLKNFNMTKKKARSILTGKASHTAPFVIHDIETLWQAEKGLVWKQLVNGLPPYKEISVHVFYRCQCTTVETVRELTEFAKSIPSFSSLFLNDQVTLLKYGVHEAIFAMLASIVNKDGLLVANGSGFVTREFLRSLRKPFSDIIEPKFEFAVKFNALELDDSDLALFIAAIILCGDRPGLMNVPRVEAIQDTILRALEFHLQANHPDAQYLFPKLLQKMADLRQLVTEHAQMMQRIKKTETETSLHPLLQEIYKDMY

hFXR = target: T2, hFXR (Homo sapiens, UniProt Q96RI1); test: Alphascreen coactivator recruitment assay on hFXR; type: biochemical
T2 sequence (Q96RI1 1-486): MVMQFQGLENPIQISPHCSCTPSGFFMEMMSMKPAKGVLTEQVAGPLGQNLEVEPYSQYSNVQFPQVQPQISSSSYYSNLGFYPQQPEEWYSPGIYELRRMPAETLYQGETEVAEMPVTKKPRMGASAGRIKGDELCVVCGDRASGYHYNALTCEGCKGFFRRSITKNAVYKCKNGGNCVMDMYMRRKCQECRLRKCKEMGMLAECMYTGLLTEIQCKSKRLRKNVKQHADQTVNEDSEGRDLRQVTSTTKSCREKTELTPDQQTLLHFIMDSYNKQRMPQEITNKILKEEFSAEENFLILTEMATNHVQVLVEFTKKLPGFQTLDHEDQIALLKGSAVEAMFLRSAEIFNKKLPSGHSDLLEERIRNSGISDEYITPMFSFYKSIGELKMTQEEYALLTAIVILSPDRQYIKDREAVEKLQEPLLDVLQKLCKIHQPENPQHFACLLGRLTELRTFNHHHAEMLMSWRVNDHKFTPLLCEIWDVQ
Protocol: (§1) The selectivity of compounds of the invention was evaluated using assay methods known in the art. Specifically, the following assay methods were used: • FXR and LXR: Coactivator Recruitment (alphascreen); • TGR5: cAMP level on human intestinal cell line (NCI-H716); • PXR: Ligands Competition assay (Binding Assay) • CAR: Coactivator Recruitment (Lanthascreen)

Intestinal Bacteria = test: In vitro metabolic stability in human stool culture; conditions: human stool culture
Protocol: Homogenized fresh human stools (500 mg) were transferred into sterile vials to which 5 mL of sterilized chopped meat-glucose medium (Scott Lab., Fiskville, R.I.) was added. BA were then added at a final concentration of 0.05 mM. Vials were incubated at 37° C.; then, at 0, 1, 2, 4, 8 and 24 h after the addition of the BA, the reaction was stopped with 150 μL of 30% KOH. The samples were centrifuged at 3500 rpm for 10 min; from the supernatant the BA were isolated by C-18 solid-phase extraction and analyzed by TLC and HPLC-ES-MS/MS.
Thin-layer chromatography (TLC), utilizing silica gel 0.25 mm thickness plates (Merck, Darmstat, Germany), was employed as the first screening test. The solvent system used for the separation of conjugated BA was composed of propionic acid/isoamyl acetate/water/N-propanol (3:4:1:2, v/v/v/v; solvent I), and that of the unconjugated BA was acetic acid/carbon tetrachloride/isopropyl ether/isoamyl acetate/water/N-propanol/benzene (1:4:6:8:2:2, v/v/v/v/v/v; solvent II).

PXR = target: T3, PXR (Homo sapiens, UniProt O75469); test: PXR ligands competition assay (binding assay)
T3 sequence (O75469 1-434): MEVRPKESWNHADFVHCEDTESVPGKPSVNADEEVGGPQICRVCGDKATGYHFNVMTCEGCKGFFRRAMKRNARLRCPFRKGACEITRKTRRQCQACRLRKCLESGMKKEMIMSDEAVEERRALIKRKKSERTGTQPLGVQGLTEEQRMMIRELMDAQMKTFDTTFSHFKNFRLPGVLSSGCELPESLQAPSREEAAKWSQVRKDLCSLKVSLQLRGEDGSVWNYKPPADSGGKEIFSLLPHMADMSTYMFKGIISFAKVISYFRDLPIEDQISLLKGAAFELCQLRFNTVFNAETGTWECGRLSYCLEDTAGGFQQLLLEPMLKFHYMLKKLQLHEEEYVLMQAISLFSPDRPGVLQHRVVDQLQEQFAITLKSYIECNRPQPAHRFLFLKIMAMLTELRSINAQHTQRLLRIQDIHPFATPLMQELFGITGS
Protocol: as §1

bovine serum albumin = target: T4, bovine serum albumin (Bos taurus, UniProt P02769); test: Albumin binding by equilibrium dialysis; type: in vitro ADME; conditions: 100 μM BA in 5% bovine serum albumin-saline, pH 7.2
T4 construct: dissolved at a concentration of 100 μM in 5% bovine serum albumin-saline solution (pH 7.2); from tissue; host or cells: bovine serum (only from the protein's name)
Protocol: The extent of albumin binding was evaluated by equilibrium dialysis at a fixed BA-albumin ratio. BA was dissolved at a concentration of 100 μM in 5% bovine serum albumin-saline solution (pH 7.2) and left to stand for 24 h at 25° C. Two milliliters of this solution was dialyzed in cellulose sacs having a molecular weight cut-off of 12-14,000 against 25 ml of saline solution. The system was equilibrated by mechanical gently shaking for 72 h at 25° C. BA concentrations of the dialyzed solution (corresponding to the free unbound fraction) and of the starting solution were determined with HPLC-ESI-MS/MS in the same conditions of the previous analysis. The percent of albumin binding was calculate from the initial BA concentration and from the unbound concentration in the dialyzed fraction. All these compounds never less present an albumin binding compatible with a relatively fast hepatic uptake, similarly to natural occurring BA. Accordingly different kinetics (slower) of the liver uptake is expected.

hTGR5 = target: T5, hTGR5 (Homo sapiens, UniProt Q8TDU6); test: FRET (cAMP) level in NCI-H716 human intestinal cell line; type: cell-based
T5 sequence (Q8TDU6 1-330): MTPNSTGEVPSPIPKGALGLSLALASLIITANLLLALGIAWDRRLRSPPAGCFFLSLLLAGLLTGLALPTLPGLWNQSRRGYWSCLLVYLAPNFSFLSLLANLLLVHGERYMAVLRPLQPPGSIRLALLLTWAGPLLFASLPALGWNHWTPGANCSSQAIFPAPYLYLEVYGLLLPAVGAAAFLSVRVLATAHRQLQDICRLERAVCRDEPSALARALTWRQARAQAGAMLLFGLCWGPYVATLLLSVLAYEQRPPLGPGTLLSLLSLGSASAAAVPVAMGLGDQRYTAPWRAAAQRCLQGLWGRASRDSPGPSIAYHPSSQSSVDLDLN
Protocol: EC50 values were determined by probit analysis.
as §1

[1] = NR selectivity table, coactivator recruitment (alphascreen), ref standard CDCA, read-out: FXR EC50
[2] = Table 1, reference standard CDCA, read-out: Alphascreen Assay hFXR EC50

T4 sequence (P02769 25-607): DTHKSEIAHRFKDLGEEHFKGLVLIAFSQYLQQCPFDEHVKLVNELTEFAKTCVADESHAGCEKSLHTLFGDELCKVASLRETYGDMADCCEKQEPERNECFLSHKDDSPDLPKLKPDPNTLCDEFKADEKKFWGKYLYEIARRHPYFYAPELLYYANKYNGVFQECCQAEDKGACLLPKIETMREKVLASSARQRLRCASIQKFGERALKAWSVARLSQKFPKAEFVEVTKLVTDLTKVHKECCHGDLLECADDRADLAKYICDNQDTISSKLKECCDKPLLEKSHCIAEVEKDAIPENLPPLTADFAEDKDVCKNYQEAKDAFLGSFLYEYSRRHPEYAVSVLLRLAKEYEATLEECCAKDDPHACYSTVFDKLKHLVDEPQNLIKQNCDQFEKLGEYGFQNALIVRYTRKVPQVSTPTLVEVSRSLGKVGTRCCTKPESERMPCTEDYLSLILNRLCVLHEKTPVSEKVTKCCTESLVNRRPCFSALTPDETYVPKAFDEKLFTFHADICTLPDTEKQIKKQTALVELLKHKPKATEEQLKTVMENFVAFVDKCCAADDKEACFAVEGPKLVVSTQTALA

| SMILES | PPARδ EC50 (PPARδ) | EC50 (hFXR; [1]) | EC50 (hFXR; [2]) | side chain stability (Intestinal Bacteria) | EC50 (PXR) | Albumin Binding (bovine serum albumin) | EC50 (hTGR5) |
| --- | --- | --- | --- | --- | --- | --- | --- |
| CC[C@H]1[C@@H](O)[C@@H]2[C@H](C[C@H](O)[C@]3(C)[C@@H]([C@H](C)CCCS(=O)(=O)[O-])CC[C@@H]23)[C@@]2(C)CC[C@@H](O)C[C@@H]12.[Na+] [Compound 3A, 3α,7α,12α-trihydroxy-6α-ethyl-5β-cholan-24-sulfonate Sodium Salt] | No | 7 µM | 7 ± 3 µM | very stable | 150 µM | 81% | 0.7 ± 0.2 µM |
| CCC1C(O)C2C3CCC(C(C)CC(C)OS(=O)(=O)O)C3(C)CCC2C2(C)CCC(O)CC12 [Compound 2A, 3α,7α,23-trihydroxy-6α-ethyl-23(S)-methyl-24-nor-5β-cholan-23-sulfate Sodium Salt] | No | 0.14 µM | 0.145 ± 0.05 µM | quite stable | 21 µM | 97% | 1.6 ± 0.3 µM |
